Data on three compounds can be found in US20120135864A1, “POLLINATION IMPROVER” (TAMINCO, NAAMLOZE VENNOOTSCHAP, priority 2009, published 2012).

What all share (type): in vivo
Experiment [1] deals with Winter Barley cv Carat. In words: Winter barley pot trial under glasshouse conditions: grain yield and thousand grain weight. Conditions: for Grain Yield (%) T1 Timing / Grain Yield (%) T2 Timing: untreated = 100; for Grain Yield (g per Pot) T1 Timing: sprayed at T1 (Growth Stage 52: one quarter ear emergence); for Grain Yield (g per Pot) T2 Timing: sprayed at T2 (Growth Stage 65-69: at time of anthesis). As to the method: (§1) The applied concentration of the composition of the present invention can vary widely depending on the water volume applied to plants as well as other factors such as plant age and size, and plant sensitivity to the final seed yield and crop quality improver. […] The rate of other components such as spreaders and stickers can be 50-200 ml per ha. The rate of cytokinin can typically be 0.001 to 1.0 percent of the formulation. […] ADD=at least one from class (f) each at <3 g/l, plus at least one from class (c). Winter Barley: […] Harvested: 28 July. […] Harvested: 28 July. Navy Bean: […] Harvested: 28 August. […] Harvested: 28 August. Statistical Layout: Randomised Complete Block trial, under glasshouse conditions, United Kingdom.

The test system of experiment [2] is Glycine max (SOYBEAN). As to the kind of experiment: Soybean pot trial under glasshouse conditions: seed yield and thousand seed weight. The note with it: for Seed Yield (%) T1 Timing / Seed Yield (%) T2 Timing: relative to untreated; for Seed Yield (g per Pot) T1 Timing: sprayed at T1 (Growth Stage R1: first flowering); for Seed Yield (g per Pot) T2 Timing: sprayed at T2 (Growth Stage R3). As to the method:
as §1

The test system of experiment [3] is Winter Wheat cv Limerick. As to the kind of experiment: Winter wheat pot trial under glasshouse conditions: grain yield and thousand grain weight. Conditions: for Grain Yield (%) T1 Timing / Grain Yield (%) T2 Timing: relative to untreated; for Grain Yield (g per Pot) T1 Timing: sprayed at T1 (Growth Stage 52: one quarter ear emergence); for Grain Yield (g per Pot) T2 Timing: sprayed at T2 (Growth Stage 65-69: at time of anthesis). As to the method: as §1

In experiment [4] the test system is Phaseolus vulgaris (NAVY BEAN) cv Primel. In words: Navy bean pot trial under glasshouse conditions: seed yield and seed weight. The note with it: for Seed Yield (%) T1 Timing / Seed Yield (%) T2 Timing: relative to untreated; for Seed Yield (g per Pot) T1 Timing: sprayed at T1 (Growth Stage R1: first flowering); for Seed Yield (g per Pot) T2 Timing: sprayed at T2 (Growth Stage R3). The protocol:
as §1

The subject of experiment [5] is Winter Barley (Mean of 3 Varieties). As to the kind of experiment: Grain quality improvement pot trial, winter barley. An excerpt: (§2) Thousand grain weight, specific weight and % screenings are different aspects of crop quality. For example, specific weight (bushel weight) is the weight of a given volume of grain, expressed in kg/hl. For example, growers have to meet standards of 76 for wheat and 64 for barley in order to meet minimum quality requirements. Varieties with the highest values are those most likely to produce acceptable grain lots. Aspects of crop quality for different varieties of crops are found in The Pocket Guide to Varieties of Cereals, Oilseeds and Pulses (NIAB Association). Other quality standards include, but are not limited to, endosperm texture, protein content (%), Hagberg falling number, Zeleny volume (cc), Chopin Alveograph, malt extract, IBD approval—brewing, IBD approval—distilling, IBD approval—grain distilling, sieving %<2.25 mm, sieving %<2.5 mm, nitrogen content, kernel content, sieving %<2.0 mm, oil content (%), oil type, hilum colour, overseas malting, hot water extract, and seed colour. Examples of % screenings are 2.2 mm and 2.5 mm. Such measures can be used in determining the effect provided by the present invention.
(§3) The TAMPF formulation example in these experiments included AN+AC+ADD, applied at the rate of 1 litre per hectare. ADD=at least one from class (f) each at <3 g/l, plus at least one from class (c).
(§4) Trials information: grown in pots in standard multi-purpose compost of pH 6.5, at 6/7 seeds per 9 cm pot (winter wheat), or 5/6 seeds per 9 cm pot (winter barley). Sprayed at the start of the anthesis growth stage (=shortly after ear emergence: GS60)

In experiment [6] the test system is Winter Wheat (Mean of 3 Varieties). In words: Grain quality improvement pot trial, winter wheat.
Source text: as §2, §3, §4

Where [7] appears, read: sprayed at start of anthesis (GS60).

Consider `CC(=O)Nc1ccc(O)cc1` [AC, N-(4-hydroxypheyl)acetamide, reference compound], for which the “Grain Yield (%) T1 Timing” value in experiment [1] (T1 (Growth Stage 52)) is reported as 102.8%; in experiment [3] (T1 (Growth Stage 52)), 98.0%. Besides, the “Grain Yield (%) T2 Timing” value in experiment [1] (T2 (Growth Stage 65-69)) was found to be 98.8%; in experiment [3] (T2 (Growth Stage 65-69)), 103.7%. In addition, the “Grain Yield (g per Pot) T1 Timing” value in experiment [1] came to 25.5 g per Pot; in experiment [3], 29.3 g per Pot. Also, the “Grain Yield (g per Pot) T2 Timing” value is recorded as 24.5 g per Pot in experiment [1] and 31.0 g per Pot in experiment [3]. The figures for the “Seed Yield (%) T1 Timing” value in experiment [2] (T1 (Growth Stage R1)) and in experiment [4] (T1 (Growth Stage R1)) were 101.8% and 98.0%, respectively. Also, the “Seed Yield (%) T2 Timing” value in experiment [2] (T2 (Growth Stage R3)) is listed as 101.8%; in experiment [4] (T2 (Growth Stage R3)), 99.8%. In addition, the “Seed Yield (g per Pot) T1 Timing” value is 33.5 g per Pot in experiment [2] and 53.3 g per Pot in experiment [4]. In addition, the “Seed Yield (g per Pot) T2 Timing” value was 33.5 g per Pot in experiment [2] and 54.3 g per Pot in experiment [4].

For the compound `Nc1ccccc1C(=O)O` [AN, anthranilic acid], the “Grain Yield (%) T1 Timing” value was determined as 96.8% in experiment [1] (T1 (Growth Stage 52)) and 99.7% in experiment [3] (T1 (Growth Stage 52)). Moreover, the “Grain Yield (%) T2 Timing” value in experiment [1] (T2 (Growth Stage 65-69)) was determined as 98.8%; in experiment [3] (T2 (Growth Stage 65-69)), 98.7%. In addition, the entries for the “Grain Yield (g per Pot) T1 Timing” value in experiment [1] and in experiment [3] were 24.0 g per Pot and 29.8 g per Pot, respectively. The entries for the “Grain Yield (g per Pot) T2 Timing” value in experiment [1] and in experiment [3] were 24.5 g per Pot and 29.5 g per Pot, respectively. The “Seed Yield (%) T1 Timing” value was found to be 99.7% in experiment [2] (T1 (Growth Stage R1)) and 102.0% in experiment [4] (T1 (Growth Stage R1)). For the same compound, the results for the “Seed Yield (%) T2 Timing” value in experiment [2] (T2 (Growth Stage R3)) and in experiment [4] (T2 (Growth Stage R3)) were 101.2% and 98.0%, respectively. For the same compound, the “Seed Yield (g per Pot) T1 Timing” value in experiment [2] was 32.8 g per Pot; in experiment [4], 55.5 g per Pot. Moreover, the figures for the “Seed Yield (g per Pot) T2 Timing” value in experiment [2] and in experiment [4] were 33.3 g per Pot and 53.3 g per Pot, respectively.

For the compound `O=S(O)(O)=S` [Thiosulphate], the “Thousand Grain Weight (g) T1 Timing” value in experiment [1] (T1 (Growth Stage 52)) is listed as 46.5 g; in experiment [3] (T1 (Growth Stage 52)), 50.4 g. The figures for the “Grain Yield (%) T1 Timing” value in experiment [1] (T1 (Growth Stage 52)) and in experiment [3] (T1 (Growth Stage 52)) were 102.8% and 108.4%, respectively. For the same compound, the “Thousand Grain Weight (g) T2 Timing” value in experiment [1] (T2 (Growth Stage 65-69)) is 46.4 g; in experiment [3] (T2 (Growth Stage 65-69)) it was 50.7 g. The figures for the “Grain Yield (%) T2 Timing” value in experiment [1] (T2 (Growth Stage 65-69)) and in experiment [3] (T2 (Growth Stage 65-69)) were 102.4% and 111.7%, respectively. The “Grain Yield (g per Pot) T1 Timing” value is 25.5 g per Pot in experiment [1] and 32.4 g per Pot in experiment [3]. The entries for the “Grain Yield (g per Pot) T2 Timing” value in experiment [1] and in experiment [3] were 25.4 g per Pot and 33.4 g per Pot, respectively. The “% Screenings (2.2 mm)” value in experiment [5] (sprayed at GS60, 2.2 mm) is recorded as 4.8%; in experiment [6] (sprayed at GS60, 2.2 mm), 4.5%. In addition, the “% Screenings (2.5 mm)” value came out at 7.3% in experiment [5] (sprayed at GS60, 2.5 mm) and 8.0% in experiment [6] (sprayed at GS60, 2.5 mm). Besides, the entries for the “Specific Weight (kg/hl)” value in experiment [5] (setting [7]) and in experiment [6] (setting [7]) were 68.3 kg/hl and 74.0 kg/hl, respectively. Moreover, the “Thousand Seed Weight (g) T1 Timing” value in experiment [2] (T1 (Growth Stage R1)) was 160 g. The “Seed Yield (%) T1 Timing” value in experiment [2] (T1 (Growth Stage R1)) is listed as 108.8%; in experiment [4] (T1 (Growth Stage R1)), 108.6%. Also, the “Thousand Seed Weight (g) T2 Timing” value in experiment [2] (T2 (Growth Stage R3)) worked out at 159 g. Also, the “Seed Yield (%) T2 Timing” value in experiment [2] (T2 (Growth Stage R3)) stood at 110.3%; in experiment [4] (T2 (Growth Stage R3)) it was 109.9%. Also, the “Seed Yield (g per Pot) T1 Timing” value in experiment [2] is 35.8 g per Pot; in experiment [4], 59.1 g per Pot. For the same compound, the figures for the “Seed Yield (g per Pot) T2 Timing” value in experiment [2] and in experiment [4] were 36.3 g per Pot and 59.8 g per Pot, respectively. In addition, the “Indiv Seed Weight (mg) T1 Timing” value in experiment [4] (T1 (Growth Stage R1)) is 276 mg. Besides, in experiment [4] (T2 (Growth Stage R3)), the “Indiv Seed Weight (mg) T2 Timing” value is reported as 275 mg.
